Legend:
HSA (human albumin) = HSA (human albumin) (Homo sapiens (Human), UniProt P02768); assay: HSA binding analysis using a chiral HSA column; format: in vitro ADME; details: for k′ (capacity factor): 37° C., pH 7.0, k′=(Tr-T0)/T0; for HSA binding Conclusion: classification of AB %
Description: The test system used in this analysis was an HSA chiral column.
The relationship between the retention time (Tr) and percentage of albumin binding (AB %) depended on the dead time (T0) and the capacity factor (k′): AB %=[k′/(k′+1)]*100 • where k′=(Tr-T0)/T0

E. coli FabI = E. coli FabI (Escherichia coli (strain K12), UniProt P0AEK4); details: cited from earlier work
Sequence of E. coli FabI (P0AEK4 whole entry): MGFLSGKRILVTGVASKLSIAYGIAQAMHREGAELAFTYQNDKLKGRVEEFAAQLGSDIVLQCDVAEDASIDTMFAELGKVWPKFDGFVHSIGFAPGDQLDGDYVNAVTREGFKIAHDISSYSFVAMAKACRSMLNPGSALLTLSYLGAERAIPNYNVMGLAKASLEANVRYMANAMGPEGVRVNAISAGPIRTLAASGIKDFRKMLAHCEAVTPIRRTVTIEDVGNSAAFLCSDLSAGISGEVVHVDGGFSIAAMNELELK

[1] = test system: methicillin susceptible Staphylococcus aureus strain ATCC 29213; assay: In vivo antibacterial activity, experimental model of thigh infection in neutropenic mice; details: 1.5 h after infection, neutropenic female Swiss mice, 20 h

Sequence of HSA (human albumin) (P02768 25-609): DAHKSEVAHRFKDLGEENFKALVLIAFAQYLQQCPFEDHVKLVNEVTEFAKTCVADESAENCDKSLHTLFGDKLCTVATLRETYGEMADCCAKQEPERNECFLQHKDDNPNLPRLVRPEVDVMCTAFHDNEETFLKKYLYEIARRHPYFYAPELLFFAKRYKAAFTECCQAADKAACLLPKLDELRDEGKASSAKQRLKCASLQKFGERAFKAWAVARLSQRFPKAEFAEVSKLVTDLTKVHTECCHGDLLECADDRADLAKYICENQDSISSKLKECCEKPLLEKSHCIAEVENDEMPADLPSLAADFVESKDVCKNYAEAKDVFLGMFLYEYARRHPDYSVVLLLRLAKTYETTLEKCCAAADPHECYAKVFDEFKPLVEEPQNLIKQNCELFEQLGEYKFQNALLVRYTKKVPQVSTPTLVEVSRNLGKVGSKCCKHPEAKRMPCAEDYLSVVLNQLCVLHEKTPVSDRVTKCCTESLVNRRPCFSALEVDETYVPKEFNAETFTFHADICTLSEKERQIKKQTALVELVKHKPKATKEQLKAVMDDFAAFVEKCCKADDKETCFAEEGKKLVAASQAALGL

| Compound | affinity in vitro to human albumin (HSA (human albumin)) | k′ (capacity factor) (HSA (human albumin)) | HSA binding Conclusion (HSA (human albumin)) | type of inhibition of E. coli FabI (E. coli FabI) | in vivo antibacterial activity (bacterial burden in the thigh of infected mice) ([1]; 100 mg/kg orally) | in vivo antibacterial activity (bacterial burden in the thigh of infected mice) ([1]; 50 mg/kg subcutaneously) |
| --- | --- | --- | --- | --- | --- | --- |
| CCCO/N=C(\C)C1CN(C(=O)/C=C/c2cnc3c(c2)CCC(=O)N3)C1 [Example 70, 6-((E)-3-Oxo-3-(3-((E)-1-(propoxyimino)ethyl)azetidin-1-yl)prop-1-enyl)-3,4-dihydro-1,8-naphthyridin-2(1H)-one] | low affinity | 0.580 | Low binding (AB≦75%: Low binding) | – | – | – |
| Oc1cc(Cl)ccc1Oc1ccc(Cl)cc1Cl [Triclosan] | – | – | – | reversible, tight-binding inhibitor | – | – |
| O=C1CCc2cc(/C=C/C(=O)N3CC(OCCc4cccs4)C3)cnc2N1 [Example 29, (E)-6-(3-Oxo-3-(3-(2-(thiophen-2-yl)ethoxy)azetidin-1-yl)prop-1-enyl)-3,4-dihydro-1,8-naphthyridin-2(1H)-one] | low affinity | 1.259 | Low binding (AB≦75%: Low binding) | – | – | – |
| CN1CCC2(CC1)Cc1cc(/C=C/C(=O)N3CC(c4cc5ccccc5o4)C3)cnc1NC2=O [Example 69, (E)-6-(3-(3-(Benzofuran-2-yl)azetidin-1-yl)-3-oxoprop-1-en-1-yl)-1′-methyl-1H-spiro[[1,8]naphthyridine-3,4′-piperidin]-2(4H)-one] | moderate affinity | 7.730 | Moderate | – | – | – |
| CCCO/N=C(/C)C1CN(C(=O)/C=C/c2cnc3c(c2)CCC(=O)N3)C1 [Example 71, 6-((E)-3-Oxo-3-(3-((Z)-1-(propoxyimino)ethyl)azetidin-1-yl)prop-1-enyl)-3,4-dihydro-1,8-naphthyridin-2(1H)-one] | low affinity | 0.404 | Low binding (AB≦75%: Low binding) | – | – | – |
| O=C1CCc2cc(/C=C/C(=O)N3CC(c4cc5ccccc5o4)C3)cnc2N1 [Example 59, (E)-6-(3-(3-(Benzofuran-2-yl)azetidin-1-yl)-3-oxoprop-1-enyl)-3,4-dihydro-1,8-naphthyridin-2(1H)-one] | moderate affinity | 4.678 | Moderate | – | – | – |
| O=C1CCc2cc(/C=C/C(=O)N3CC(OCc4cccs4)C3)cnc2N1 [Example 12, 6-{(1E)-3-Oxo-3-[3-(2-thienylmethoxy)azetidin-1-yl]prop-1-en-1-yl}-3,4-dihydro-1,8-naphthyridin-2(1H)-one] | low affinity | 0.826 | Low binding (AB≦75%: Low binding) | – | able to protect mice against thigh dissemination | – |
| Cc1c(C2CN(C(=O)/C=C/c3cnc4c(c3)CC3(CCN(C)CC3)C(=O)N4)C2)oc2ccccc12 [Example 68, (E)-1′-Methyl-6-(3-(3-(3-methylbenzofuran-2-yl)azetidin-1-yl)-3-oxoprop-1-enyl)-1H-spiro[[1,8]naphthyridine-3,4′-piperidin]-2(4H)-one] | high affinity | 11.216 | High binding (AB≦90%: High binding) | – | – | – |
| CCCCOC1CN(C(=O)/C=C/c2cnc3c(c2)CC2(CCN(C)CC2)C(=O)N3)C1 [Example 63, (E)-6-(3-(3-Butoxyazetidin-1-yl)-3-oxoprop-1-enyl)-1′-methyl-1H-spiro[[1,8]naphthyridine-3,4′-piperidin]-2(4H)-one] | low affinity | 1.288 | Low binding (AB≦75%: Low binding) | – | – | – |
| CCCCCOC1CN(C(=O)/C=C/c2cnc3c(c2)CCC(=O)N3)C1 [Example 15, 6-{(1E)-3-Oxo-3-[3-(pentyloxy)azetidin-1-yl]prop-1-en-1-yl}-3,4-dihydro-1,8-naphthyridin-2(1H)-one] | – | – | – | – | – | able to protect mice against thigh dissemination |
| Cc1c(C2CN(C(=O)/C=C/c3cnc4c(c3)CCC(=O)N4)C2)oc2ccccc12 [Example 67, (E)-6-(3-(3-(3-Methylbenzofuran-2-yl)azetidin-1-yl)-3-oxoprop-1-enyl)-3,4-dihydro-1,8-naphthyridin-2(1H)-one] | moderate affinity | 8.360 | Moderate | – | – | – |
